Patent publication US20260207626A1, “SYNTHETIC TRITERPENOIDS AND COMPOSITIONS THEREOF IN WEIGHT MANAGEMENT, SKELETAL MUSCLE FUNCTION, AND APPETITE SUPPRESSION” (The Board of Regents of the University of Texas System, priority 2022, published 2026)
Values joined by “and” are separate entries in the source; they are usually repeats but may differ in a detail not shown here. Equal entries are not always repeated.

What was measured:
[1] = tested on: MCP-1; test: LPS-induced MCP-1 ELISA in RAW264.7 macrophages (CDDO-EA batches); type: cell-based, mouse; settings: for MCP-1 production: LPS-induced, macrophages in cell culture; for MCP-1 level (ELISA), average: Table 4 (two values); for fold difference in the decrease of MCP-1 production: versus LPS alone
Experimental: Macrophages were pre-treated with 500 nM CDDO-EA #1 or 500 nM CDDO-EA #2, for 1 hour. The microphages were then stimulated with 100 ng/ml of lipopolysaccharide (LPS) for 6 hr. Supernatants were collected from each culture. An enzyme linked immunoassay (ELISA) was performed to detect levels of the pro-inflammatory protein, monocyte chemotactic protein-1 (MCP-1). The macrophages were also treated with LPS alone or with CDDO-EA alone. A control (no treatment) group was also included in the study.
The second batch of CDDO-EA was tested for its biological property of anti-inflammatory activity. As with the first batch of CDDO-EA, this was tested by using the mouse macrophage cell line RAW264.7. RAW264.7 macrophages were pre-treated with 500 nM CDDO-EA for 1 hour then stimulated with 100 ng/ml of lipopolysaccharide (LPS) for 6 hr. Supernatants were collected, and an enzyme linked immunoassay (ELISA) was performed to detect the pro-inflammatory protein, monocyte chemotactic protein-1 (MCP-1). The macrophages were also treated with LPS alone or with CDDO-EA alone. A control (no treatment) group was also included in the study. […] This suppression of MCP-1 production by the second batch CDDO-EA is similar to that observed for the first batch of CDDO-EA. (See FIG. 21).

[2] = tested on: transforming growth factor-β (TGF-β)/Smad signaling; settings: Suh et al., 2003, Minns et al., 2004, Mix et al.; cited from earlier work
[3] = tested on: heme-oxygenase-1 and Nrf2/ARE signaling; settings: Liby et al., 2005; cited from earlier work
[4] = Shin et al.; oral gavage 30 μmol/kg three times a week, HFD 82 days; interpretation questioned by the applicant; cited from earlier work
[5] = tested on: IκB-α; settings: Saha et al.; liver homogenates, HFD mice; cited from earlier work
[6] = tested on: AMPK; settings: Saha et al.; cited from earlier work
[7] = tested on: N171-82Q mice; settings: cited from earlier work
[8] = tested on: GLUT4; test: GLUT4myc translocation by immunofluorescence in L6-GLUT4myc myotubes; type: cell-based, rat; settings: CDDO-EA 500 nM 1 h; insulin 100 nM 15 min
Experimental: Immunofluorescence and confocal microscopy were employed to visualize the localization of c-myc epitope-tagged GLUT4 in L6-GLUT4myc myotubes treated with CDDO-EA for 1 h. L6-GLUT4myc myotubes were also treated with insulin alone for 15 min as a positive control.
To examine the properties of CDDO-EA in regulating glucose metabolism in the skeletal muscle, the present study examined whether CDDO-EA induces translocation of GLUT4 to the cell surface (FIG. 16A). Immunofluorescence and confocal microscopy were used to visualize the localization of c-myc epitope-tagged GLUT4 in L6-GLUT4myc cells.
Immunofluorescence microscopy: L6-GLUT4myc myoblasts (4×10^4 cells/ml, 0.2 ml/well) were plated onto Nunc Lab-TekII 8-chamber slides (Thermo Fisher Scientific) and differentiated for 7 days. Myotubes were pre-treated with CDDO-EA 500 nM for 1 h followed by LPS 100 ng/ml (E. coli O111: B4, Sigma Aldrich) treatment for 1 h. After treatment, myotubes were fixed, permeabilized, and stained with anti-NF-κB p65 primary antibody (cat #sc-372, 1:100, Santa Cruz Biotechnology) and a goat anti-rabbit secondary antibody conjugated with Alexa Fluor® 488 (cat #A32731, 1:500, Invitrogen) as previously described. For GLUT4myc cell membrane staining, myotubes were pre-treated with CDDO-EA 500 nM for 1 h followed by LPS 100 ng/ml (E. coli 0111: B4, Sigma Aldrich) treatment for 1 h. Insulin 100 nM (cat #19278, Sigma Aldrich) treatment was for 15 min. After CDDO-EA, LPS, and insulin treatment, myotubes were fixed without permeabilization and stained with anti-c-myc primary antibody (cat #C3956, 1:100, Sigma Aldrich) and a goat anti-rabbit secondary antibody conjugated with Alexa Fluor® 488 (cat #A32731, 1:500, Invitrogen) as previously described.

[9] = tested on: GLUT4; test: Colorimetric assay of cell surface GLUT4 in L6GLUT4myc myotubes (preliminary data); type: cell-based, rat; settings: FIG. 30
Experimental: Is CDDO-EA-mediated GLUT4 translocation dependent on AMPK activation? The catalytic subunit alpha-1 (α1) of AMPK will be KD by siRNA. Cells will be treated with CDDO-EA (500 nM, 1 hour), insulin ([…] for 15 min), or insulin and CDDO-EA to determine if there is a synergistic effect on GLUT4 translocation. Also, cells will be treated with the AMPK activator, 5-aminoimidazole-4-carboxamide ribonucleoside (AICAR, 1 mM, 40 minutes), as a positive control. We will use a colorimetric assay to quantitatively measure the levels of cell surface GLUT4 in 3T3-L1 adipocytes and L6GLUT4myc myotubes^37. […] GLUT4 translocation will be detected via immunofluorescence. Subcellular protein fractionation will be conducted to detect GLUT4 in the sarcolemma for myotubes and plasma membrane for adipocytes and GLUT2 in the plasma membrane of hepatocytes via Western blotting. GLUT2 will be measured in hepatocytes because GLUT2 is the most abundant glucose transporter in hepatocytes^38. To measure glucose uptake, a non-radioactive, plate-based bioluminescent assay (Glucose Uptake-Glo, Promega) will be performed. Using Glucose Uptake-Glo, insulin induces glucose uptake in L6GLUT4my myotubes. Phosphorylation of AMPK at Thr^172 and phosphorylation of ACC at Ser^79 indicates activation of the AMPK pathway. Thus, phosphorylation of AMPK Thr^172 and ACC Ser^79 will be shown through Western blotting. […]

[10] = RAW264.7, 500 nM CDDO-EA batch 1 hour then 100 ng/ml LPS 6 hr
[11] = RAW264.7, 500 nM CDDO-EA batch alone, no LPS
[12] = 500 nM CDDO-EA batch 1 hour then 100 ng/ml LPS 6 hr
[13] = 500 nM CDDO-EA batch alone, no LPS
[14] = Table 5, 500 nM CDDO-EA batch 1 hour then 100 ng/ml LPS 6 hr
[15] = Table 5, 500 nM CDDO-EA batch alone, no LPS

## CCNC(=O)[C@]12CCC(C)(C)C[C@H]1C1C(=O)C=C3[C@@]4(C)C=C(C#N)C(=O)C(C)(C)[C@@H]4CC[C@@]3(C)[C@]1(C)CC2 (stereo partly drawn) [CDDO-EA #1, (4aS,6aR,6bS,8aR,12aS,14bS)-11-cyano-N-ethyl-2,2,6a,6b,9,9,12a-heptamethyl-10,14-dioxo-1,3,4,5,6,6a,6b,7,8,8a,9,10,12a, 14,14a, 14b-hexadecahydropicene-4a (2H)-carboxamide]
[1]; listed as Batch #1 CDDO-EA
  MCP-1 production: 31300 pg/mL
  fold difference in the decrease of MCP-1 production: about 3.6 fold
[1]; [10]
  MCP-1 level (ELISA), individual values: 30687 and 31996 and 20309 and 17055
[1]; [11]
  MCP-1 level (ELISA), individual values: 717 and 655 and 740 and 870
[1]; [12]
  MCP-1 level (ELISA), average: 31341
[1]; [13]
  MCP-1 level (ELISA), average: 686
[1]; [14]
  MCP-1 level (ELISA), mean of four values: 25012
[1]; [15]
  MCP-1 level (ELISA), mean of four values: 746

## CCNC(=O)[C@]12CCC(C)(C)C[C@H]1C1C(=O)C=C3[C@@]4(C)C=C(C#N)C(=O)C(C)(C)[C@@H]4CC[C@@]3(C)[C@]1(C)CC2 (stereo partly drawn) [CDDO-EA #2, (4aS,6aR,6bS,8aR,12aS,14bS)-11-cyano-N-ethyl-2,2,6a,6b,9,9,12a-heptamethyl-10,14-dioxo-1,3,4,5,6,6a,6b, 7,8,8a,9,10,12a, 14,14a, 14b-hexadecahydropicene-4a (2H)-carboxamide]
[1]; listed as Batch #2 CDDO-EA
  MCP-1 production: 24600 pg/mL
  fold difference in the decrease of MCP-1 production: ~4.6 fold
[1]; RAW264.7, 500 nM 1 hour then 100 ng/ml LPS 6 hr
  LPS-induced production of MCP-1: blocked the LPS-induced production of MCP-1
[1]; [10]
  MCP-1 level (ELISA), individual values: 23503 and 25793 and 11890 and 14316
[1]; [11]
  MCP-1 level (ELISA), individual values: 481 and 497 and 314 and 587
[1]; [12]
  MCP-1 level (ELISA), average: 24648
[1]; [13]
  MCP-1 level (ELISA), average: 489
[1]; [14]
  MCP-1 level (ELISA), mean of four values: 18875
[1]; [15]
  MCP-1 level (ELISA), mean of four values: 470

## CC1(C)CC[C@]2(C(=O)n3ccnc3)CC[C@]3(C)[C@H](C(=O)C=C4[C@@]5(C)C=C(C#N)C(=O)C(C)(C)[C@@H]5CC[C@]43C)[C@@H]2C1 [CDDO-Im]
[2]
  modulation of TGF-β/Smad signaling: ability to modulate transforming growth factor-β (TGF-β)/Smad signaling
[3]
  induction of heme-oxygenase-1 and Nrf2/ARE signaling: potent inducers of heme-oxygenase-1 and Nrf2/ARE signaling
[4]
  energy expenditure (EE): increases energy expenditure (EE) in mice fed a HFD

## COC(=O)[C@]12CCC(C)(C)C[C@H]1C1C(=O)C=C3[C@@]4(C)C=C(C#N)C(=O)C(C)(C)[C@@H]4CC[C@@]3(C)[C@]1(C)CC2 (stereo partly drawn) [CDDO-Me, methyl (4aS,6aR,6bS,8aR,12aS,14bS)-11-cyano-2,2,6a,6b,9,9,12a-heptamethyl-10,14-dioxo-1,3,4,5,6,6a,6b,7,8,8a,9,10,12a, 14,14a, 14b-hexadecahydropicene-4a (2H)-carboxylate]
[2]
  modulation of TGF-β/Smad signaling: ability to modulate transforming growth factor-β (TGF-β)/Smad signaling
[3]
  induction of heme-oxygenase-1 and Nrf2/ARE signaling: potent inducers of heme-oxygenase-1 and Nrf2/ARE signaling
[5]
  phosphorylation of IκB-α: increase in phosphorylation of IκB-α
[6]
  AMPK signaling: activated AMPK signaling in isolated mouse hepatocytes and C2C12 muscle cells

## CC1(C)CC[C@]2(C(=O)NCC(F)(F)F)CC[C@]3(C)[C@H](C(=O)C=C4[C@@]5(C)C=C(C#N)C(=O)C(C)(C)[C@@H]5CC[C@]43C)[C@@H]2C1 [CDDO-TFEA]
[7]; N171-82Q mice
  muscle strength and balance, survival: improved muscle strength and balance and increased survival
[7]; Stack et al. (2010)
  accumulation in the skeletal muscle: accumulated in the skeletal muscle
  oxidative stress in skeletal muscle: oxidative stress in skeletal muscle was reduced

## Insulin: positive control for GLUT4myc translocation, 100 nM for 15 min [reference compound]
[8]
  GLUT4myc translocation to the cell surface: induced GLUT4myc translocation into the cell membrane
[9]
  GLUT4 translocation to the cell surface (colorimetry assay): induce GLUT4 translocation to the cell surface
